Key:
Format in all cases: in vivo
[1] = tested on: Aedes aegypti strain MONHEIM; assay: Aedes test (AEDSAE surface treatment); conditions: application rate 100 mg/m^2, glazed tile, exposure 30 minutes, 24 hours after contact, read-out: efficacy (mortality)
Description: Aedes Test (AEDSAE Surface Treatment)
(§1) Solvent: acetone+2000 ppm rapeseed oil methyl ester (RME)
(§2) To produce a suitable active compound formulation, the active compound is dissolved in the solvent (2 mg/ml). The active compound formulation is pipetted onto a glazed tile and, after it has dried off, adult mosquitoes of the species Aedes aegypti strain MONHEIM are placed onto the treated tile. The exposure time is 30 minutes.
(§3) 24 hours after contact with the treated surface, mortality in % is determined. 100% means that all mosquitoes have been killed; 0% means that none of the mosquitoes have been killed.

Rhipicephalus sanguineus = Rhipicephalus sanguineus in vitro contact test with adult brown dog ticks; conditions: application rate 5 μg/cm^2 (=500 g/ha), after 48 h, adult dog ticks dead or moribund
Description: Rhipicephalus sanguineus—In Vitro Contact Tests with Adult Brown Dog Ticks
For the coating of the test tubes, 9 mg of active ingredient are first dissolved in 1 ml of acetone p.a. and then diluted to the desired concentration with acetone p.a. 250 μl of the solution are distributed homogeneously on the inner walls and the base of a 25 ml glass tube by turning and rocking on an orbital shaker (rocking rotation at 30 rpm for 2 h). With 900 ppm of active ingredient solution and internal surface area 44.7 cm^2, given homogeneous distribution, an area-based dose of 5 μg/cm^2 is achieved.
After the solvent has evaporated off, the tubes are populated with 5-10 adult dog ticks (Rhipicephalus sanguineus), sealed with a perforated plastic lid and incubated in a horizontal position in the dark at room temperature and ambient humidity. After 48 h, efficacy is determined. To this end, the ticks are knocked to the base of the tube and incubated on a hotplate at 45-50° C. for not more than 5 min. Ticks which remain motionless on the base or move in such an uncoordinated manner that they are unable to deliberately avoid the heat by climbing upwards are considered to be dead or moribund.
An efficacy of 100% means that all the ticks were dead or moribund. 0% efficacy means that none of the ticks were harmed.

Boophilus microplus = Boophilus microplus injection test; conditions: application rate 20 μg/animal, assessed after 7 days by laying of fertile eggs
Description: Boophilus microplus—Injection Test
(§4) Solvent: dimethyl sulfoxide
To produce a suitable active compound preparation, 10 mg of active compound are mixed with 0.5 ml of solvent and the concentrate is diluted to the desired concentration with solvent.
1 μl of the active ingredient solution is injected into the abdomen of 5 engorged adult female cattle ticks (Boophilus microplus). The animals are transferred into dishes and kept in a climate-controlled room.
Efficacy is assessed after 7 days by laying of fertile eggs. Eggs which are not visibly fertile are stored in a climate-controlled cabinet until the larvae hatch after about 42 days. An efficacy of 100% means that none of the ticks has laid any fertile eggs; 0% means that all the eggs are fertile.

[2] = tested on: Anopheles gambiae strain RSPH (homozygot kdr); assay: Anopheles test (ANPHGB surface treatment); conditions: application rate 100 mg/m^2, glazed tile, exposure 30 minutes, 24 hours after contact, read-out: efficacy (mortality)
Description: Anopheles Test (ANPHGB Surface Treatment)
as §1
as §2, with “Anopheles gambiae” for “Aedes aegypti”, “RSPH (homozygot kdr)” for “MONHEIM”
as §3

[3] = tested on: Anopheles funestus strain FUMOZ-R; assay: Anopheles test (ANPHFU surface treatment); conditions: application rate 100 mg/m^2, glazed tile, exposure 30 minutes, 24 hours after contact, read-out: efficacy (mortality)
Description: Anopheles Test (ANPHFU Surface Treatment)
as §1
as §2, with “Anopheles funestus” for “Aedes aegypti”, “FUMOZ-R (Hunt et al., Med Vet Entomol. 2005 September; 19(3):271-5)” for “MONHEIM”
as §3

Ctenocephalides felis = Ctenocephalides felis oral test; conditions: application rate 100 ppm in citrated cattle blood, after 2 days
Description: Ctenocephalides felis—Oral Test
as §4
To produce a suitable active ingredient formulation, 10 mg of active ingredient are mixed with 0.5 ml of dimethyl sulfoxide. Dilution with citrated cattle blood gives the desired concentration.
About 20 unfed adult cat fleas (Ctenocephalides felis) are placed into a chamber which is closed at the top and bottom with gauze. A metal cylinder whose bottom end is closed with parafilm is placed onto the chamber. The cylinder contains the blood/active ingredient formulation, which can be imbibed by the fleas through the parafilm membrane.
After 2 days, the rate of extermination in % is determined. 100% means that all of the fleas have been killed; 0% means that none of the fleas have been killed.

Myzus persicae = Myzus persicae oral test; conditions: application rate 4 ppm, after 5 days
Description: To produce a suitable active compound preparation, 1 part by weight of active compound is dissolved with the specified amounts by weight of solvent and made up to the desired concentration with water.
50 ul of the active compound preparation are transferred to microtiter plates and made up to a final volume of 200 μl with 150 μl of IPL41 insect medium (33%+15% sugar). Then the plates are sealed with parafilm through which a mixed population of the green peach aphid (Myzus persicae), which is located in a second microtiter plate, can pierce and absorb the solution.
After 5 days, the efficacy in % is determined. 100% means that all the aphids have been killed; 0% means that no aphids have been killed.

In the case of `O=C(NC1CC1)c1cc(-c2cnn(-c3c(Cl)cc(C(F)(C(F)(F)F)C(F)(F)F)cc3Cl)c2)sc1Br` [I-T1-1], the mortality at 100 mg/m2 [1] is reported as 80 to 100%, the efficacy (Rhipicephalus sanguineus) is reported as 100% and the efficacy (Boophilus microplus) is reported as 100%. The mortality at 100 mg/m2 [2] was 80 to 100%, the mortality at 100 mg/m2 [3] was 80 to 100% and the “efficacy (rate of extermination)” value (Ctenocephalides felis) was 100%.
`Cc1sc(-c2cnn(-c3c(Cl)cc(C(F)(C(F)(F)F)C(F)(F)F)cc3Cl)c2)cc1C(=O)NC1CC1` [I-T1-11] was tested, and the efficacy (Rhipicephalus sanguineus) was 100%, the efficacy (Myzus persicae) was 90% and the efficacy (Boophilus microplus) was 100%. For the same molecule, the “efficacy (rate of extermination)” value (Ctenocephalides felis) was 100%.

Reference: US11825838B2, “Tricyclic carboxamides for controlling arthropods” (Bayer CropScience Aktiengesellschaft, priority 2017, dated 2023)
